This experiment addresses recombinant protein Wee-1 (Homo sapiens, UniProt P30291). The experiment can be described thus: Inhibition of enzymatic activity of recombinant protein Wee-1 (HTRF). Format: biochemical. Here is the method:
The inhibitory effect of the compounds on the enzyme activity of recombinant protein Wee-1 was determined by HTRF. The procedures are as follows:
After DMSO or serially diluted compounds (up to 200 nM, 1:5 serially diluted) and recombinant proteins were co-incubated in a kinase buffer at 37° C. for 30 min Fluorescein-PolyGAT and ATP were added, and then the reaction was started by the addition of a substrate. After incubation at room temperature for 90 min, an antibody and a detection solution were added, and after further incubation at room temperature for 60 min, fluorescence values were detected (excitation wavelength: 340 nm, emission wavelengths: 495 and 520 nm). The 520 nm/495 nm fluorescence intensity ratio value was calculated, and compared with that of the DMSO group, and then the inhibition percentages and IC50 values of the compounds were calculated.
Sequence of recombinant protein Wee-1 (P30291 whole entry): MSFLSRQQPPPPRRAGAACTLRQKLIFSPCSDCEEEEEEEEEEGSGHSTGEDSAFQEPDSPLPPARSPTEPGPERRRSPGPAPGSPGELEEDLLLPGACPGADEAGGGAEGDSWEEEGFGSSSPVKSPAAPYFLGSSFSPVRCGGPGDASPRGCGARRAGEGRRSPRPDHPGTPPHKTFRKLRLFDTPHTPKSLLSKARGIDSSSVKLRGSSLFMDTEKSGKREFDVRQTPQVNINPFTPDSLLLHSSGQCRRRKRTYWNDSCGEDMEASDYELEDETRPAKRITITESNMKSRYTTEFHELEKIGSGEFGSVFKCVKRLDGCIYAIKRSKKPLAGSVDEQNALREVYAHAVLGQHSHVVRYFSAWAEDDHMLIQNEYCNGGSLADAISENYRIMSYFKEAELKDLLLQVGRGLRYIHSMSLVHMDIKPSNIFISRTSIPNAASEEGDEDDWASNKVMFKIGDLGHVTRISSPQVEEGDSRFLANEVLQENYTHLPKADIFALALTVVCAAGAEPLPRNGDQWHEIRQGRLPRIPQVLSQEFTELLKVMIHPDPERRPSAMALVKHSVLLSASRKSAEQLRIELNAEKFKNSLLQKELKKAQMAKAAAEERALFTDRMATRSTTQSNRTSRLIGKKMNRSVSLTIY
As for `CN1Cc2cc(Nc3ncc(C#N)c(Nc4cccc(P(C)(C)=O)n4)n3)cc3c2[C@H](CCC3)C1` (single isomer, unassigned) [Compound 138], the IC50 is at most 10 nM.

For the molecule `CN1Cc2cc(Nc3ncc(C#N)c(Nc4cccc(P(C)(C)=O)n4)n3)cc3c2[C@@H](CCC3)C1` (single isomer, unassigned) [Compound 139], the IC50 is at most 10 nM.

In the case of `CCN1Cc2cc(Nc3ncc(C#N)c(Nc4cccc(N=S(C)(C)=O)n4)n3)cc3c2C(CCC3)C1` (stereo not drawn) [Compound 7], the IC50 was at most 10 nM. To `CCN1Cc2cc(Nc3ncc(C#N)c(Nc4cccc(N=S(C)(C)=O)n4)n3)cc3c2[C@H](CCC3)C1` [Compound 8] belongs at most 10 nM.

In the case of `CCN1Cc2cc(Nc3ncc(C#N)c(Nc4cccc(N=S(C)(C)=O)n4)n3)cc3c2[C@@H](CCC3)C1` [Compound 9], the IC50 is at most 10 nM.

In the case of `CC(C)N1Cc2cc(Nc3ncc(C#N)c(Nc4cccc(N=S(C)(C)=O)n4)n3)cc3c2C(CCC3)C1` (stereo not drawn) [Compound 10], the IC50 was at most 10 nM. To `CC(C)N1Cc2cc(Nc3ncc(C#N)c(Nc4cccc(N=S(C)(C)=O)n4)n3)cc3c2[C@H](CCC3)C1` [Compound 11] belongs at most 10 nM. Regarding `CC(C)N1Cc2cc(Nc3ncc(C#N)c(Nc4cccc(N=S(C)(C)=O)n4)n3)cc3c2[C@@H](CCC3)C1` [Compound 12], the IC50 was at most 10 nM. `CS(C)(=O)=Nc1cccc(Nc2nc(Nc3cc4c5c(c3)CN(C3CC3)CC5CCC4)ncc2C#N)n1` (stereo not drawn) [Compound 13]: the half-inhibitory concentration (IC50) was at most 10 nM. Regarding `CS(C)(=O)=Nc1cccc(Nc2nc(Nc3cc4c5c(c3)CN(C3CC3)C[C@H]5CCC4)ncc2C#N)n1` [Compound 14], the IC50 was at most 10 nM. On to `CS(C)(=O)=Nc1cccc(Nc2nc(Nc3cc4c5c(c3)CN(C3CC3)C[C@@H]5CCC4)ncc2C#N)n1` [Compound 15], for which the IC50 was at most 10 nM.

With `CS(C)(=O)=Nc1cccc(Nc2nc(Nc3cc4c5c(c3)CN(CCO)CC5CCC4)ncc2C#N)n1` (stereo not drawn) [Compound 16], the IC50 is at most 10 nM. `CN(C)CCN1Cc2cc(Nc3ncc(C#N)c(Nc4cccc(N=S(C)(C)=O)n4)n3)cc3c2C(CCC3)C1` (stereo not drawn) [Compound 17]: the IC50 is at most 10 nM.

On to `CS(C)(=O)=Nc1cccc(Nc2nc(Nc3cc4c5c(c3)CN(CC3CC3)CC5CCC4)ncc2C#N)n1` (stereo not drawn) [Compound 18], for which the IC50 was at most 10 nM.

Regarding `CN1CC2CCCc3cc(Nc4ncc(C#N)c(Nc5cccc(N=S(C)(C)=O)n5)n4)cc(c32)C12CC2` (stereo not drawn) [Compound 19], the half-maximal inhibitory concentration (IC50) was at most 10 nM. For `CN1CC2CCCc3cc(Nc4ncc(C#N)c(Nc5cccc(N=S(C)(C)=O)n5)n4)cc(c32)C1(C)C` (stereo not drawn) [Compound 20], the IC50 was at most 10 nM. On to `CN1C[C@H]2CCCc3cc(Nc4ncc(C#N)c(Nc5cccc(N=S(C)(C)=O)n5)n4)cc(c32)C1(C)C` [Compound 21], for which the concentration for half-maximal inhibition (IC50) is at most 10 nM. To `CN1C[C@@H]2CCCc3cc(Nc4ncc(C#N)c(Nc5cccc(N=S(C)(C)=O)n5)n4)cc(c32)C1(C)C` [Compound 22] belongs at most 10 nM; to `CN1Cc2cc(Nc3ncc(C#N)c(Nc4cccc(N=S(C)(C)=O)n4)n3)cc3c2C(CCC3)C12CC2` (stereo not drawn) [Compound 23], at most 10 nM.

Take `CN1Cc2cc(Nc3ncc(C#N)c(Nc4cccc(N=S(C)(C)=O)n4)n3)cc3c2[C@H](CCC3)C1(C)C` [Compound 24]: the IC50 was at most 10 nM. As to `CN1Cc2cc(Nc3ncc(C#N)c(Nc4cccc(N=S(C)(C)=O)n4)n3)cc3c2[C@@H](CCC3)C1(C)C` [Compound 25], the IC50 is at most 10 nM. With `CN1Cc2cc(Nc3ncc(C#N)c(Nc4cccc(N=S(C)(C)=O)n4)n3)cc3c2C(C1)CC1(CC1)C3` (stereo not drawn) [Compound 26], the IC50 is at most 10 nM. As for `CN1Cc2cc(Nc3ncc(C#N)c(Nc4cccc(N=S(C)(C)=O)n4)n3)cc3c2C(C1)CC(C)(C)C3` (stereo not drawn) [Compound 27], the IC50 was at most 10 nM. Under `CN1Cc2cc(Nc3ncc(C#N)c(Nc4cccc(N=S(C)(C)=O)n4)n3)cc3c2C(C1)CC(F)(F)C3` (stereo not drawn) [Compound 28] stands at most 10 nM. To `CN1Cc2cc(Nc3ncc(C#N)c(Nc4cccc(N=S(C)(C)=O)n4)n3)cc3c2C(C1)C1(CC3)CC1` (stereo not drawn) [Compound 29] belongs at most 10 nM. With `CN1Cc2cc(Nc3ncc(C#N)c(Nc4cccc(N=S(C)(C)=O)n4)n3)cc3c2C(C1)C(C)(C)CC3` (stereo not drawn) [Compound 30], the IC50 is at most 10 nM. For `CN1Cc2cc(Nc3ncc(C#N)c(Nc4cccc(N=S(C)(C)=O)n4)n3)cc3c2C(C1)C(F)(F)CC3` (stereo not drawn) [Compound 31], the IC50 is at most 10 nM. To `CN1Cc2cc(Nc3ncc(C#N)c(Nc4cccc(N=S(C)(C)=O)n4)n3)cc3c2C(CCC32CC2)C1` (stereo not drawn) [Compound 32] belongs at most 10 nM; to `CN1Cc2cc(Nc3ncc(C#N)c(Nc4cccc(N=S(C)(C)=O)n4)n3)cc3c2C(CCC3(C)C)C1` (stereo not drawn) [Compound 33], at most 10 nM.

As to `CN1Cc2cc(Nc3ncc(C#N)c(Nc4cccc(N=S(C)(C)=O)n4)n3)cc3c2C(CCC3(F)F)C1` (stereo not drawn) [Compound 34], the IC50 is at most 10 nM. With `CN1Cc2cc(Nc3ncc(C#N)c(Nc4cccc(N=S(C)(C)=O)n4)n3)cc3c2C(CC=C3)C1` (stereo not drawn) [Compound 35], the half-inhibitory concentration (IC50) was at most 10 nM. Regarding `CN1Cc2cc(Nc3ncc(C#N)c(Nc4cccc(N=S(C)(C)=O)n4)n3)cc3c2C(C=CC3)C1` (stereo not drawn) [Compound 36], the IC50 was at most 10 nM. For `CN1Cc2cc(Nc3ncc(C#N)c(Nc4cccc(N=S(C)(C)=O)n4)n3)cc3c2C(CC2CC32)C1` (stereo not drawn) [Compound 37], the IC50 is at most 10 nM.

Regarding `CN1Cc2cc(Nc3ncc(C#N)c(Nc4cccc(N=S(C)(C)=O)n4)n3)cc3c2C(C1)C1CC1C3` (stereo not drawn) [Compound 38], the IC50 is at most 10 nM. For the molecule `CN1Cc2cc(Nc3ncc(C#N)c(Nc4cccc(N=S(C)(C)=O)n4)n3)cc3c2C2(CC2CC3)C1` (stereo not drawn) [Compound 39], the IC50 is at most 10 nM. Under `CN1Cc2nc(Nc3ncc(C#N)c(Nc4cccc(N=S(C)(C)=O)n4)n3)cc3c2C(CCC3)C1` (stereo not drawn) [Compound 40] stands at most 10 nM; under `Cc1c(Nc2ncc(C#N)c(Nc3cccc(N=S(C)(C)=O)n3)n2)cc2c3c1CN(C)CC3CCC2` (stereo not drawn) [Compound 41], at most 10 nM. For `CN1Cc2c3c(cc(Nc4ncc(C#N)c(Nc5cccc(N=S(C)(C)=O)n5)n4)c2C2CC2)CCCC3C1` (stereo not drawn) [Compound 42], the IC50 is at most 10 nM. To `CN1Cc2c(F)c(Nc3ncc(C#N)c(Nc4cccc(N=S(C)(C)=O)n4)n3)cc3c2C(CCC3)C1` (stereo not drawn) [Compound 43] belongs at most 10 nM; to `COc1c(Nc2ncc(C#N)c(Nc3cccc(N=S(C)(C)=O)n3)n2)cc2c3c1CN(C)CC3CCC2` (stereo not drawn) [Compound 44], at most 10 nM. Under `CN1Cc2cc(Nc3ncc(C#N)c(Nc4cccc(N=S(C)(C)=O)n4)n3)nc3c2C(CCC3)C1` (stereo not drawn) [Compound 45] stands at most 10 nM; under `Cc1c(Nc2ncc(C#N)c(Nc3cccc(N=S(C)(C)=O)n3)n2)cc2c3c1CCCC3CN(C)C2` (stereo not drawn) [Compound 46], at most 10 nM; under `CN1Cc2cc(Nc3ncc(C#N)c(Nc4cccc(N=S(C)(C)=O)n4)n3)c(C3CC3)c3c2C(CCC3)C1` (stereo not drawn) [Compound 47], at most 10 nM.

Regarding `CN1Cc2cc(Nc3ncc(C#N)c(Nc4cccc(N=S(C)(C)=O)n4)n3)c(F)c3c2C(CCC3)C1` (stereo not drawn) [Compound 48], the IC50 is at most 10 nM.

With `CN1Cc2cc(Nc3ncc(C#N)c(Nc4cccc(N=S(C)(C)=O)n4)n3)cc3c2[C@H](CC3)C1` [Compound 51], the IC50 was 10 to 50 nM.
